Reference: patent US8183351B2, “Avermectin derivatives” (Bayer Cropscience AG, priority 2006, dated 2012)

Each molecule was assayed on caterpillars of the army worm (Spodoptera frugiperda) (assay: Spodoptera frugiperda test (SPODFR spray treatment)). Conditions: Example I; 4 ppm active compound; sprayed maize leaf discs.
Type: in vivo
Method: Spodoptera frugiperda Test (SPODFR Spray Treatment)
• Solvents: 78.0 parts by weight of acetone • 1.5 parts by weight of dimethylformamide • Emulsifier: 0.5 part by weight of alkylaryl polyglyycol ether
After the desired period of time, the effect in % is determined. 100% means that all caterpillars have been killed; 0% means that none of the caterpillars have been killed.

`CC[C@H](C)[C@H]1OC2(C=C[C@@H]1C)C[C@@H]1C[C@@H](C/C=C(\C)[C@@H](OC3CC(OC)C(OC(=O)CCn4ccnc4)C(C)O3)[C@@H](C)/C=C/C=C3\CO[C@@H]4[C@H](O)C(C)=CC(C(=O)O1)[C@]34O)O2` (stereo partly drawn) [Example 86] and `CC[C@H](C)[C@H]1OC2(C=C[C@@H]1C)C[C@@H]1C[C@@H](C/C=C(\C)[C@@H](OC3CC(OC)C(OC(=O)Cn4ccnc4)C(C)O3)[C@@H](C)/C=C/C=C3\CO[C@@H]4[C@H](O)C(C)=CC(C(=O)O1)[C@]34O)O2` (stereo partly drawn) [Example 49] are the same in “Kill rate in % after 5 days” value: 100% for the first, 100% for the second.

`CC[C@H](C)[C@H]1OC2(C=C[C@@H]1C)C[C@@H]1C[C@@H](C/C=C(\C)[C@@H](OC3CC(OC)C(OC(=O)COC)C(C)O3)[C@@H](C)/C=C/C=C3\CO[C@@H]4[C@H](O)C(C)=CC(C(=O)O1)[C@]34O)O2` (stereo partly drawn) [Example 30] and `CC[C@H](C)[C@H]1OC2(C=C[C@@H]1C)C[C@@H]1C[C@@H](C/C=C(\C)[C@@H](OC3CC(OC)C(OC(=O)Cc4nc(C)sc4C)C(C)O3)[C@@H](C)/C=C/C=C3\CO[C@@H]4[C@H](O)C(C)=CC(C(=O)O1)[C@]34O)O2` (stereo partly drawn) [Example 47] are the same in “Kill rate in % after 5 days” value: 100% for the first, 100% for the second.

First: CC[C@H](C)[C@H]1OC2(C=C[C@@H]1C)C[C@@H]1C[C@@H](C/C=C(\C)[C@@H](OC3CC(OC)C(OC(=O)c4ccc(F)cc4)C(C)O3)[C@@H](C)/C=C/C=C3\CO[C@@H]4[C@H](O)C(C)=CC(C(=O)O1)[C@]34O)O2 (stereo partly drawn) [Example 99]
Second: CC[C@H](C)[C@H]1O[C@]2(C=C[C@@H]1C)C[C@@H]1C[C@@H](C/C=C(\C)[C@@H](O[C@H]3C[C@H](OC)[C@@H](OC(=O)c4ccc(Cl)cc4)[C@H](C)O3)[C@@H](C)/C=C/C=C3\CO[C@@H]4[C@H](O)C(C)=C[C@@H](C(=O)O1)[C@]34O)O2 [4′-O-(4-chlorobenzoyl)-4′-O-de(2,6-dideoxy-3-O-methyl-α-L-arabino-hexopyranosyl)-5-O-demethyl-avermectin A1a, reference compound]
The “Kill rate in % after 5 days” value of the first is higher: 100% for the first, 0% for the second.

`CC[C@H](C)[C@H]1OC2(C=C[C@@H]1C)C[C@@H]1C[C@@H](C/C=C(\C)[C@@H](OC3CC(OC)C(OC(=O)Cc4csc(-c5ccncc5)n4)C(C)O3)[C@@H](C)/C=C/C=C3\CO[C@@H]4[C@H](O)C(C)=CC(C(=O)O1)[C@]34O)O2` (stereo partly drawn) [Example 46] and `CC[C@H](C)[C@H]1OC2(C=C[C@@H]1C)C[C@@H]1C[C@@H](C/C=C(\C)[C@@H](OC3CC(OC)C(OC(=O)COc4ccc(Cl)cc4)C(C)O3)[C@@H](C)/C=C/C=C3\CO[C@@H]4[C@H](O)C(C)=CC(C(=O)O1)[C@]34O)O2` (stereo partly drawn) [Example 39] are the same in “Kill rate in % after 5 days” value: 100% for the first, 100% for the second.

Going from `CC[C@H](C)[C@H]1OC2(C=C[C@@H]1C)C[C@@H]1C[C@@H](C/C=C(\C)[C@@H](OC3CC(OC)C(OC(=O)C4CCC(=O)N4)C(C)O3)[C@@H](C)/C=C/C=C3\CO[C@@H]4[C@H](O)C(C)=CC(C(=O)O1)[C@]34O)O2` (stereo partly drawn) [Example 38] to `CC[C@H](C)[C@H]1OC2(C=C[C@@H]1C)C[C@@H]1C[C@@H](C/C=C(\C)[C@@H](OC3CC(OC)C(OC(=O)c4ccc(OC(F)(F)F)cc4)C(C)O3)[C@@H](C)/C=C/C=C3\CO[C@@H]4[C@H](O)C(C)=CC(C(=O)O1)[C@]34O)O2` (stereo partly drawn) [Example 97], the “Kill rate in % after 5 days” value falls from 100% to 33%.

Each molecule was assayed on larvae of the mustard beetle (Phaedon cochleariae) (assay: Phaedon test (PHAECO spray treatment)). Conditions: Example D; 4 ppm active compound; sprayed Chinese cabbage discs.
Type: in vivo
Method: Phaedon Test (PHAECO Spray Treatment)
• Solvents: 78 parts by weight of acetone • 1.5 parts by weight of dimethylformamide • Emulsifier: 0.5 part by weight of alkylaryl polyglyycol ether
After the desired period of time, the effect in % is determined. 100% means that all beetle larvae have been killed; 0% means that none of the beetle larvae have been killed.

With `CC[C@H](C)[C@H]1OC2(C=C[C@@H]1C)C[C@@H]1C[C@@H](C/C=C(\C)[C@@H](OC3CC(OC)C(OC(=O)Cn4ccnn4)C(C)O3)[C@@H](C)/C=C/C=C3\CO[C@@H]4[C@H](O)C(C)=CC(C(=O)O1)[C@]34O)O2` (stereo partly drawn) [Example 3] the “Kill rate in % after 7 days” value was 80%.

Same assay, conditions: Example G; 4 ppm active compound; sprayed Chinese cabbage discs

`CC[C@H](C)[C@H]1OC2(C=C[C@@H]1C)C[C@@H]1C[C@@H](C/C=C(\C)[C@@H](OC3CC(OC)C(OC(=O)CN4CCOCC4)C(C)O3)[C@@H](C)/C=C/C=C3\CO[C@@H]4[C@H](O)C(C)=CC(C(=O)O1)[C@]34O)O2` (stereo partly drawn) [Example 79] and `CC[C@H](C)[C@H]1OC2(C=C[C@@H]1C)C[C@@H]1C[C@@H](C/C=C(\C)[C@@H](OC3CC(OC)C(OC(=O)CN4CCNCC4)C(C)O3)[C@@H](C)/C=C/C=C3\CO[C@@H]4[C@H](O)C(C)=CC(C(=O)O1)[C@]34O)O2` (stereo partly drawn) [Example 101, 4′-O-(piperazin-1-ylacetyl)-avermectin B1 monosaccharide] are the same in “Kill rate in % after 7 days” value: 100% for the first, 100% for the second.

`CC[C@H](C)[C@H]1OC2(C=C[C@@H]1C)C[C@@H]1C[C@@H](C/C=C(\C)[C@@H](OC3CC(OC)C(OC(=O)Cn4nc(C)n(C)c4=O)C(C)O3)[C@@H](C)/C=C/C=C3\CO[C@@H]4[C@H](O)C(C)=CC(C(=O)O1)[C@]34O)O2` (stereo partly drawn) [Example 63] and `CC[C@H](C)[C@H]1OC2(C=C[C@@H]1C)C[C@@H]1C[C@@H](C/C=C(\C)[C@@H](OC3CC(OC)C(OC(=O)Cn4nc(OC)n(C)c4=O)C(C)O3)[C@@H](C)/C=C/C=C3\CO[C@@H]4[C@H](O)C(C)=CC(C(=O)O1)[C@]34O)O2` (stereo partly drawn) [Example 64] are the same in “Kill rate in % after 7 days” value: 100% for the first, 100% for the second.

`CC[C@H](C)[C@H]1OC2(C=C[C@@H]1C)C[C@@H]1C[C@@H](C/C=C(\C)[C@@H](OC3CC(OC)C(OC(=O)C(C)n4ccnc4)C(C)O3)[C@@H](C)/C=C/C=C3\CO[C@@H]4[C@H](O)C(C)=CC(C(=O)O1)[C@]34O)O2` (stereo partly drawn) [Example 58] and `CC[C@H](C)[C@H]1OC2(C=C[C@@H]1C)C[C@@H]1C[C@@H](C/C=C(\C)[C@@H](OC3CC(OC)C(OC(=O)C(C)n4cccn4)C(C)O3)[C@@H](C)/C=C/C=C3\CO[C@@H]4[C@H](O)C(C)=CC(C(=O)O1)[C@]34O)O2` (stereo partly drawn) [Example 62] are the same in “Kill rate in % after 7 days” value: 100% for the first, 100% for the second.

`CC[C@H](C)[C@H]1OC2(C=C[C@@H]1C)C[C@@H]1C[C@@H](C/C=C(\C)[C@@H](OC3CC(OC)C(OC(=O)C(C)n4ccnn4)C(C)O3)[C@@H](C)/C=C/C=C3\CO[C@@H]4[C@H](O)C(C)=CC(C(=O)O1)[C@]34O)O2` (stereo partly drawn) [Example 61] and `CC[C@H](C)[C@H]1OC2(C=C[C@@H]1C)C[C@@H]1C[C@@H](C/C=C(\C)[C@@H](OC3CC(OC)C(OC(=O)CNC)C(C)O3)[C@@H](C)/C=C/C=C3\CO[C@@H]4[C@H](O)C(C)=CC(C(=O)O1)[C@]34O)O2` (stereo partly drawn) [Example 104] are the same in “Kill rate in % after 7 days” value: 100% for the first, 100% for the second.

`CC[C@H](C)[C@H]1OC2(C=C[C@@H]1C)C[C@@H]1C[C@@H](C/C=C(\C)[C@@H](OC3CC(OC)C(OC(=O)CN4CCN(C(=O)OC(C)(C)C)CC4)C(C)O3)[C@@H](C)/C=C/C=C3\CO[C@@H]4[C@H](O)C(C)=CC(C(=O)O1)[C@]34O)O2` (stereo partly drawn) [Example 53, 4′-O-{[4-(tert-Butoxycarbonyl)piperazin-1-yl]acetyl}-avermectin B1 monosaccharide] and `CCC(C)C1OC2(C=CC1C)CC1CC(CC=C(C)C(OC3CC(OC)C(OC(=O)C(C)N4CCN(C(=O)OC(C)(C)C)CC4)C(C)O3)C(C)C=CC=C3COC4C(O)C(C)=CC(C(=O)O1)C34O)O2` (mixture of isomers) [Example 77] are the same in “Kill rate in % after 7 days” value: 100% for the first, 100% for the second.

`CC[C@H](C)[C@H]1OC2(C=C[C@@H]1C)C[C@@H]1C[C@@H](C/C=C(\C)[C@@H](OC3CC(OC)C(OC(=O)Cn4c(C)ccc4C)C(C)O3)[C@@H](C)/C=C/C=C3\CO[C@@H]4[C@H](O)C(C)=CC(C(=O)O1)[C@]34O)O2` (stereo partly drawn) [Example 44] and `CC[C@H](C)[C@H]1OC2(C=C[C@@H]1C)C[C@@H]1C[C@@H](C/C=C(\C)[C@@H](OC3CC(OC)C(OC(=O)Cc4c(C)noc4C)C(C)O3)[C@@H](C)/C=C/C=C3\CO[C@@H]4[C@H](O)C(C)=CC(C(=O)O1)[C@]34O)O2` (stereo partly drawn) [Example 43] are the same in “Kill rate in % after 7 days” value: 100% for the first, 100% for the second.

`CC[C@H](C)[C@H]1OC2(C=C[C@@H]1C)C[C@@H]1C[C@@H](C/C=C(\C)[C@@H](OC3CC(OC)C(OC(=O)Cc4ccccn4)C(C)O3)[C@@H](C)/C=C/C=C3\CO[C@@H]4[C@H](O)C(C)=CC(C(=O)O1)[C@]34O)O2` (stereo partly drawn) [Example 65] and `CC[C@H](C)[C@H]1OC2(C=C[C@@H]1C)C[C@@H]1C[C@@H](C/C=C(\C)[C@@H](OC3CC(OC)C(OC(=O)C(C)n4ccnn4)C(C)O3)[C@@H](C)/C=C/C=C3\CO[C@@H]4[C@H](O)C(C)=CC(C(=O)O1)[C@]34O)O2` (stereo partly drawn) [Example 56] are the same in “Kill rate in % after 7 days” value: 100% for the first, 100% for the second.

`CC[C@H](C)[C@H]1OC2(C=C[C@@H]1C)C[C@@H]1C[C@@H](C/C=C(\C)[C@@H](OC3CC(OC)C(OC(=O)CN4CCC(NC(=O)OC(C)(C)C)CC4)C(C)O3)[C@@H](C)/C=C/C=C3\CO[C@@H]4[C@H](O)C(C)=CC(C(=O)O1)[C@]34O)O2` (stereo partly drawn) [Example 51] and `CC[C@H](C)[C@H]1OC2(C=C[C@@H]1C)C[C@@H]1C[C@@H](C/C=C(\C)[C@@H](OC3CC(OC)C(OC(=O)CC4CCCO4)C(C)O3)[C@@H](C)/C=C/C=C3\CO[C@@H]4[C@H](O)C(C)=CC(C(=O)O1)[C@]34O)O2` (stereo partly drawn) [Example 31] are the same in “Kill rate in % after 7 days” value: 100% for the first, 100% for the second.

Going from `CC[C@H](C)[C@H]1OC2(C=C[C@@H]1C)C[C@@H]1C[C@@H](C/C=C(\C)[C@@H](OC3CC(OC)C(OC(=O)C4CC4(Cl)Cl)C(C)O3)[C@@H](C)/C=C/C=C3\CO[C@@H]4[C@H](O)C(C)=CC(C(=O)O1)[C@]34O)O2` (stereo partly drawn) [Example 37] to `CC[C@H](C)[C@H]1OC2(C=C[C@@H]1C)C[C@@H]1C[C@@H](C/C=C(\C)[C@@H](OC3CC(OC)C(OC(=O)Cn4nc(C(F)(F)F)cc4OC)C(C)O3)[C@@H](C)/C=C/C=C3\CO[C@@H]4[C@H](O)C(C)=CC(C(=O)O1)[C@]34O)O2` (stereo partly drawn) [Example 41], the “Kill rate in % after 7 days” value falls from 100% to 83%.

In the case of `CC[C@H](C)[C@H]1OC2(CC[C@@H]1C)C[C@@H]1C[C@@H](C/C=C(\C)[C@@H](OC3CC(OC)C(OC(=O)Cn4cccn4)C(C)O3)[C@@H](C)/C=C/C=C3\CO[C@@H]4[C@H](O)C(C)=CC(C(=O)O1)[C@]34O)O2` (stereo partly drawn) [Example 22], the “Kill rate in % after 7 days” value is reported as 100%.
